Test results as given in patent US20210395312A1, “QUANTUM CONFINED PEPTIDE ASSEMBLIES AND USES THEREOF” (Ramot at Tel-Aviv University Ltd., priority 2019, published 2021).
Several values for one entry are separate records, joined by “and”; a condition that tells them apart may be missing. Equal values may be shown once.

What was measured:
Type in all cases: physicochemical
[1] = Fluorescence photobleaching; details: continuous irradiation for 600 seconds
Description: The fluorescence emission data was collected at 80 points per second for 10 minutes. The excitation and emission slit widths were each set at 5 nm. At least three measurements were performed and averaged for accuracy.

[2] = Fluorescence photostability
Description: Fluorescence photostability: Fluorescence emission spectra were measured at different time points (1 day, 7 days and 14 days). The excitation and emission slit widths were each set at 5 nm. Three measurements were performed and averaged for accuracy.

[3] = Morphology and size of self-assemblies (AFM, DLS, TEM); details: self-assemblies in MeOH
Description: Dynamic light scattering (DLS): 850 μL of the sample solution was introduced into a DTS1070 folded capillary cell (Malvern, Worcestershire, U.K.), and the size was measured using a Zetasizer Nano ZS analyzer (Malvern Instruments, Malvern, UK) at 25.0° C. and a backscatter detector (173°). Three measurements were performed and averaged for accuracy.
Atomic force microscopy (AFM): 4 μL of sample solution was dropped onto a freshly cleaved mica surface and let it dry. The mica was then rinsed with water and purged dried gently with nitrogen. A topographic image was recorded under a NanoWizard 3 BioScience AFM (JPK, Berlin, Germany) in the tapping mode at ambient temperature, with 512×512 pixel resolution and a scanning speed of 1.0 Hz.
Transmission electron microscopy (TEM): A carbon-coated copper grid was placed on a 10 μL cyclo-dipeptide droplet for 1 minute and then blotted. Next, the washed grid was placed on a 10 μL droplet containing 4% (w/v) uranyl acetate solution for 1 min and then blotted. Samples were examined using Tecnai G2 Spirit TEM (FEI) at 80 kV.
Atomic force microscopy (AFM): 5 μL of sample solution was dropped onto a freshly cleaved mica surface and dried by N2 purge (99.99%). The mica was then rinsed with water and gently purge dried with nitrogen. A topographic image was recorded under a Dimension icon AFM (Bruker) in the tapping mode at ambient temperature, with a 512×512-pixel resolution and a scanning speed of 1.0 Hz. Nanoscope Analysis software was used for data collection and analysis.
For cyclo-dipeptide-Zn structures, aliquots (10 μL) of cyclo-dipeptide-Zn were added into a glow discharge copper grid (400 mesh) coated with a thin carbon film for 2 minutes. Excess solution was then removed, and the grid was washed three times with deionized water. TEM images were viewed using a FEI Tecnai F20 electron microscope operating at 80 kV.

[4] = Fluorescence characterization (excitation/emission) of self-assemblies; details: for fluorescent emission / Emission (λEm) / Excitation (λEx): MeOH; for fluorescent emission: excited at 370 nm; for Emission (λEm): maximal emission; for Excitation (λEx): maximal excitation
Description: UV-Visible fluorescence characterization: 600 μL sample solution was pipetted into a 1.0 cm path-length quartz cuvette, and the spectrum was collected using a FluoroMax-4 Spectrofluorometer (Horiba Jobin Yvon, Kyoto, Japan) at ambient temperature. For molecular fluorescence of some experiments, the emission wavelength was set at 350 nm with a slit of 3 nm, and the excitation wavelength was set at 200-330 nm with a slit of 3 nm. For self-assembly fluorescence, the excitation wavelength was set at 370 nm with a slit of 3 nm, and the emission wavelength was set at 380-700 nm with a slit of 3 nm. For excitation-dependent maximal emission evolution experiment, the excitation wavelengths were set at 300-450 nm with a slit of 3 nm, and the emission wavelengths were set at 380-600 nm with a slit of 3 nm. According to the samples, anhydrous MeOH or MeOH solution of ZnCl2 (CuCl2) was used as background and subtracted. At least five measurements were performed and averaged for accuracy. Emission and excitation wavelengths, slit dimensions and background solutions were adjusted per the measured sample and are as indicated below. […]
(§1) Fluorescence spectroscopy and quantum yield (QY) measurement: 600 μL sample solution was pipetted into a 1.0 cm path-length quartz cuvette, and the spectrum was collected using a FluoroMax-4 Spectrofluorometer (Horiba Jobin Yvon, Kyoto, Japan) at ambient temperature. The excitation and emission wavelengths were set at 300-500 nm and 400-650 nm, respectively, with a slit of 2 nm. Absolute fluorescence QY measurements were performed using Quanta-Phi integrating sphere connected to Fluoromex-4.

[5] = Fluorescent decay measurement (lifetime); details: MeOH; for Lifetime (τ): at maximal excitation and emission
Description: Fluorescent decay measurement (lifetime): 600 μL sample solution was pipetted into a 1.0 cm path-length quartz cuvette, and the spectrum was collected using a FluoroMax-4 Spectrofluorometer (Horiba Jobin Yvon, Kyoto, Japan) equipped with a NanoLED laser excitation source at ambient temperature. The wavelength was set as the maximum excitation and emission of the samples, and a LUDOX sample (silica beads, 2 μm) was used as the prompt. The lifetime was determined by fitting the fluorescent decay data from the DAS6 Analysis software (Horiba Jobin Yvon, Kyoto, Japan). Three measurements were performed and averaged for accuracy.

[6] = Quantum yield (QY) measurement; details: MeOH; excitation set at 350 nm if maximal excitation less than 350 nm
Description: Quantum yield (QY) measurement: 5 mL sample solution was pipetted into a 1.0 cm path-length quartz cuvette with a tube (Hellma, Müllheim, Germany), and the absolute quantum yield was measured on an absolute PL quantum yield spectrometer C11347 (Hamamatsu Photonics, Shizuoka, Japan) at ambient temperature. The relevant blanks, namely anhydrous MeOH, MeOH solutions of ZnCl2 (CuCl2), or DMSO solution of ZnCl2, were used as background and subtracted. At least five measurements were performed and averaged for accuracy.
as §1

[7] = emission band 425, excitation 340 nm
[8] = emission band 520, excitation 420 nm
[9] = emission band 380 (strong), excitation 320 nm
[10] = emission band 465 (weak), excitation 370 nm

Compound	Structures [3]	Emission (λEm) [4]	Excitation (λEx) [4]	Lifetime (τ) [5]	other results
CC1(C)C(/C=C/C=C/C=C/C=C2\N(CCCCS(=O)(=O)O)c3ccc4ccccc4c3C2(C)C)=[N+](CCCCS(=O)(=O)[O-])c2ccc3ccccc3c21 [ICG, indocyanine green]	–	–	–	–	photoluminescence after continuous irradiation (photobleaching) [1]: significant fluorescence decay; fluorescence after exposure to natural light (photostability) ([2]; after 1 day): lost all fluorescence
cyanine 5.5 [Cy5.5]	–	–	–	–	photoluminescence after continuous irradiation (photobleaching) [1]: significant fluorescence decay; fluorescence lost (photostability) ([2]; after 1 week): 20%
cyclo-dihistidine [cyclo-HH]	nanofibers	–	–	–	fluorescent emission [4]: 430 nm; Emission (λEm) [4, 7]: 425 nm; Emission (λEm) [4, 8]: 520 nm; Excitation (λEx) [4, 7]: 340 nm; Excitation (λEx) [4, 8]: 420 nm; Lifetime (τ) [5, 7]: 4.89 ± 0.02 ns; Lifetime (τ) [5, 8]: 6.48 ± 0.04 ns; QY [6]: 3%
cyclo-dityrosine [cyclo-YY]	platelets	no detectable emissions	–	–	emission ([4]; DMSO, Ex 450 nm (cyclo-FF), Ex 480 nm (cyclo-YY)): 570 nm
histidine-tyrosine cyclic dipeptide [cyclo-HY]	nanofibers	390 nm	310 nm	0.003 ± 0.034 ns	–
phenylalanine-histidine cyclic dipeptide [cyclo-HF]	nanofibers	410 nm	340 nm	3.29 ± 0.03 ns	–
phenylalanine-tyrosine cyclic dipeptide [cyclo-FY]	nanofibers	430 nm	350 nm	0.022 ± 0.003 ns	QY [6]: 3%
tryptophan-histidine cyclic dipeptide [cyclo-WH]	nanofibers	–	–	–	Emission (λEm) [4, 9]: 380 (strong) nm; Emission (λEm) [4, 10]: 465 (weak) nm; Excitation (λEx) [4, 9]: 320 nm; Excitation (λEx) [4, 10]: 370 nm
tryptophan-tryptophan cyclic dipeptide [cyclo-WW]	nanospheres	–	370 nm	5.45 ± 0.03 ns	fluorescent emission [4]: 425 nm and 520 nm; Emission (λEm) ([4]; emission band 440 (strong), excitation 370 nm): 440 (strong) nm; fluorescence lifetime ([5]; excitation 370 nm): 5.6 ns
tyrosine-tryptophan cyclic dipeptide [cyclo-WY]	nanofibers	400 nm	320 nm	0.232 ± 0.004 ns	–
